Here are results for 98 molecules from the OPERA property sets (Mansouri et al. 2018).

Values after ≈ are worked out from the molar mass of the structure shown.

Settings in one series: not given
The molecule `CCCCOC(=O)CCC(=O)OCCCC` showed a solubility of 0.999 mM (≈ 230 µg/mL). On to `CC(=O)OC(C)C#N` (stereo not drawn), for which the solubility stood at 1770 mM (≈ 200000 µg/mL).

For `O=C(c1cc([N+](=O)[O-])cc([N+](=O)[O-])c1)N(O)c1ccccc1`, the solubility turned out to be 0.231 mM (≈ 70 µg/mL). On the same count and under the same terms, next, `CC(NC(=O)C=CC(=O)O)C(=O)O` (stereo not drawn): 107 mM (≈ 20000 µg/mL); `Cn1c(=O)ncc2[nH]c(=O)[nH]c21`: 161 mM (≈ 26700 µg/mL). On the same count and under the same terms, next, `Cn1cnc2nc(Cl)nc(Cl)c21`: 70.4 mM (≈ 14300 µg/mL); `CC(C)CC(c1ccc(O)cc1)c1ccc(O)cc1`: 0.429 mM (≈ 110 µg/mL). Consider `CC(C)C1OCCO1`, for which the solubility worked out at 861 mM (≈ 100000 µg/mL). The same measure, in the same setting: next, `O=C(c1ccc(Cl)cc1Cl)N(O)c1ccccc1`: 0.213 mM (≈ 60 µg/mL). The same measure, in the same setting: the value for `CN1C(=O)C(N)C(=S)N(C)C1=O` (stereo not drawn) was 76.4 mM (≈ 14300 µg/mL); that for `NNC(=O)c1nccs1` was 210 mM (≈ 30000 µg/mL); that for `COc1ccc(NCC(O)CO)cc1` (stereo not drawn) was 507 mM (≈ 100000 µg/mL).

`O=C(Cc1ccccc1)c1ccc(O)cc1` gave a solubility of 31.6 mM (≈ 6700 µg/mL). Still for that read-out and setting: next, `C=CCOC(CO)CO`: 3030 mM (≈ 400000 µg/mL); `CCC1(CC(C)=O)C(=O)NC(=O)NC1=O`: 171 mM (≈ 36400 µg/mL).

The series is the same for the next values; noted with them: 20 °C.
Molecule `CN[C@@H](Cc1ccc(O)cc1)C(=O)O` gave a solubility of 7.37 mM (≈ 1440 µg/mL). `CCCOC(=O)c1c(C(=O)O)cccc1[N+](=O)[O-]` gave a solubility of 4.5 mM (≈ 1140 µg/mL). Compared with the last molecule, the solubility is about 1.6-fold lower.

The molecule `CCC(C)(O)C(O)c1ccccc1` (stereo not drawn) came in with a solubility of 18.9 mM (≈ 3400 µg/mL). On the same count and under the same terms, the value for `CCC(=O)OCc1ccc(Cl)cc1Cl` was 0.858 mM (≈ 200 µg/mL); that for `O=C(O)CC(SC(CC(=O)O)C(=O)O)C(=O)O` (stereo not drawn) was 323 mM (≈ 86000 µg/mL).

In turn, `O/N=C1\C=CCCC1` yielded a solubility of 146 mM (≈ 16200 µg/mL). In turn, `O=C(O)c1ccccc1C(=O)c1ccc(Cl)cc1` showed a solubility of 1.92 mM (≈ 500 µg/mL).

As for `O=c1ccc(I)c[nH]1`, the solubility is 18.1 mM (≈ 4000 µg/mL). Still for that read-out and setting: the value for `NC(=O)NN=C1CCCCC1` was 38.7 mM (≈ 6000 µg/mL).

Turning to `OCc1cccc(O)c1`, the solubility was found to be 540 mM (≈ 67000 µg/mL). On the same count and under the same terms, next, `O=C(O)c1ccccc1CO`: 28.1 mM (≈ 4280 µg/mL). Regarding `CCOc1ccc(NC(C)=O)c2cccnc12`, the solubility came out at 30.4 mM (≈ 7000 µg/mL). The solubility values of the last two molecules are within 1.5-fold of each other. Same read-out and setting: the value for `COC(=O)c1ccc([N+](=O)[O-])cc1C(=O)O` was 8.79 mM (≈ 1980 µg/mL); that for `N#Cc1ccc(C(=O)O)cc1` was 8.16 mM (≈ 1200 µg/mL); that for `OCC1=C[C@@H](O)[C@@H]2C=CO[C@@H](OC3OC(CO)C(O)C(O)C3O)[C@H]12` (stereo partly drawn) was 1030 mM (≈ 356000 µg/mL). Same read-out and setting: the value for `COc1c(C(=O)O)oc2ccccc12` was 1.3 mM (≈ 250 µg/mL); that for `Clc1ncc2nccnc2n1` was 200 mM (≈ 33300 µg/mL). Take `CC(=O)NCC(=O)Nc1ccccc1`: the solubility was found to be 27.1 mM (≈ 5200 µg/mL).

In turn, `O=C(O)c1occ(Cl)c1Cl` yielded a solubility of 14.9 mM (≈ 2700 µg/mL). Regarding `CCc1nc2ncnc(O)c2nc1CC`, the solubility stood at 12.2 mM (≈ 2500 µg/mL).

For the molecule `CC(=O)Nc1ccc(Br)cc1C`, the solubility came out at 17.5 mM (≈ 4000 µg/mL). Still for that read-out and setting: the value for `O=C(O)C=C(Br)Br` was 146 mM (≈ 33500 µg/mL); that for `Cc1cnnc2c(O)cccc12` was 2.1 mM (≈ 336 µg/mL); that for `CC(C)(OC1CCCCC1)C(=O)O` was 83.2 mM (≈ 15500 µg/mL). Still for that read-out and setting: the value for `O=C(O)c1cccc2ncccc12` was 2.1 mM (≈ 364 µg/mL); that for `CC(C)c1nnc(NS(=O)(=O)c2ccc(N)cc2)s1` was 0.385 mM (≈ 115 µg/mL). The same measure, in the same setting: the value for `COCc1ccccc1` was 24.6 mM (≈ 3000 µg/mL); that for `CCC(C#N)(CC)C(=O)NC(N)=O` was 27.3 mM (≈ 5000 µg/mL); that for `N#Cc1cccc(N)c1` was 67.7 mM (≈ 8000 µg/mL). For `NC(N)=Nc1nc2ccccc2s1`, the solubility is 3.62 mM (≈ 696 µg/mL). On the same count and under the same terms, the value for `O=C1C=CC(=NO)C=C1` was 28.4 mM (≈ 3500 µg/mL); that for `Cn1c(=O)c2nccnc2n(C)c1=O` was 34.7 mM (≈ 6670 µg/mL). On the same count and under the same terms, the value for `OCc1ccccc1Br` was 6.95 mM (≈ 1300 µg/mL).

Staying with this series, now noted: 21 °C.
The molecule `O=C(O)c1ccccc1C(=O)c1ccc(O)cc1` returned a solubility of 2.61 mM (≈ 632 µg/mL).

As for `COc1ccc2[nH]c(=O)cc(C(=O)O)c2c1`, the solubility was 0.776 mM (≈ 170 µg/mL).

The series is the same for the next values; noted with them: 22 °C.
For `O=[N+]([O-])c1cccc(P(=O)(O)O)c1`, the solubility was determined as 4830 mM (≈ 980000 µg/mL). `NNc1cccc(S(=O)(=O)O)c1` displayed a solubility of 149 mM (≈ 28000 µg/mL). On the same count and under the same terms, the value for `O=C1CCCCCCCCCN1` was 13 mM (≈ 2200 µg/mL).

The series is the same for the next values; noted with them: 24 °C.
`O=C(O)c1ccc(C(=O)O)c(Br)c1` registered a solubility of 7.35 mM (≈ 1800 µg/mL). That is a millimolar value.

Still in this series, the particulars now being: 25 °C.
Turning to `CC(Cl)C(C)(C)O` (stereo not drawn), the solubility came out at 510 mM (≈ 62500 µg/mL). The molecule `COc1c(O)ccc(C=O)c1C` returned a solubility of 42.1 mM (≈ 7000 µg/mL). This solubility is about 12-fold lower than that of the molecule before. Same read-out and setting: next, `CCC1OC(=O)c2ccccc21` (stereo not drawn): 17.9 mM (≈ 2900 µg/mL).

`CCCC[C@H](O)C(C)C`: the solubility stood at 15.4 mM (≈ 2010 µg/mL). `CC(C)[C@@H](Br)C(=O)O` registered a solubility of 78.9 mM (≈ 14300 µg/mL).

The molecule `ON=C1C=CC(=NO)c2ncccc21` returned a solubility of 0.159 mM (≈ 30 µg/mL). On the same count and under the same terms, next, `Cc1ccc(S(C)(=O)=O)cc1`: 10.3 mM (≈ 1750 µg/mL); `Oc1nc2ccccc2nc1O`: 1.54 mM (≈ 250 µg/mL). Still for that read-out and setting: next, `Cn1c(=O)c2[nH]c(Cl)nc2n(C)c1=O`: 31.1 mM (≈ 6670 µg/mL).

With `O=P(Oc1ccccc1)(Oc1ccccc1)N1CCOCC1`, the solubility is 7.2 mM (≈ 2300 µg/mL). Turning to `O=C(O)c1ccc([N+](=O)[O-])c(C(=O)O)c1`, the solubility is 45.8 mM (≈ 9670 µg/mL).

On to `CCOc1ccc(NC(C)=O)c(C)c1`, for which the solubility came out at 14.5 mM (≈ 2800 µg/mL). Against the preceding molecule, the solubility is about 3.2-fold lower. Still for that read-out and setting: next, `CC(=O)N[C@@H](CC(C)C)C(=O)O`: 46.8 mM (≈ 8100 µg/mL). On the same count and under the same terms, the value for `CC1CCCC(=NO)C1=NO` (stereo not drawn) was 25.6 mM (≈ 4000 µg/mL); that for `OCc1cccc(CO)c1` was 585 mM (≈ 80800 µg/mL); that for `NC(=O)Nc1ccc(Br)cc1` was 23.2 mM (≈ 5000 µg/mL). For the molecule `CCCCOC(=O)c1cccnc1`, the solubility was 14.6 mM (≈ 2610 µg/mL).

Consider `CCCCCOC(=O)c1cccnc1`, for which the solubility is 4.19 mM (≈ 810 µg/mL). Against the preceding molecule, the solubility is about 3.5-fold lower. Still for that read-out and setting: next, `CC(=O)OCC(C)OC(C)=O` (stereo not drawn): 624 mM (≈ 100000 µg/mL). The same measure, in the same setting: the value for `Cc1cccc(Cl)c1O` was 168 mM (≈ 24000 µg/mL). The same measure, in the same setting: next, `CCCCOP(=O)(OCC)OCCCC`: 14.3 mM (≈ 3400 µg/mL); `CC(C)C[C@H](N)C(=O)N[C@H](CCC(N)=O)C(=O)O`: 27 mM (≈ 7000 µg/mL); `CCCCOCCC(=O)OC`: 51.2 mM (≈ 8200 µg/mL). In turn, `CCCCCCNC(=O)c1cccnc1` came in with a solubility of 3.01 mM (≈ 620 µg/mL). For the molecule `CCC(NC=O)C(=O)O` (stereo not drawn), the solubility was determined as 256 mM (≈ 33600 µg/mL). Compared with the last molecule, the solubility is about 85-fold higher.

For the molecule `NS(=O)(=O)c1cccc(S(N)(=O)=O)c1`, the solubility was 6.77 mM (≈ 1600 µg/mL). Compared with the last molecule, the solubility is about 38-fold lower. Still for that read-out and setting: next, `O=[N+]([O-])c1cc(CCO)ccc1O`: 69.9 mM (≈ 12800 µg/mL). Same read-out and setting: next, `CSc1ncccn1`: 396 mM (≈ 50000 µg/mL); `O=COCc1ccco1`: 104 mM (≈ 13100 µg/mL).

On to `NC(=O)c1ccc(S(N)(=O)=O)cc1`, for which the solubility was determined as 4.99 mM (≈ 1000 µg/mL).

`O=C(O)CNC(=S)SCC(=O)O` returned a solubility of 50 mM (≈ 10500 µg/mL).

`CCOC(=S)SC(CC(=O)O)C(=O)O` (stereo not drawn) registered a solubility of 101 mM (≈ 24100 µg/mL). Regarding `CC(C)C[C@H](NC=O)C(=O)O` (racemic), the solubility worked out at 185 mM (≈ 29500 µg/mL). On the same count and under the same terms, the value for `NP(N)(=O)c1ccccc1` was 71.1 mM (≈ 11100 µg/mL); that for `CCCCCCP(=O)(OCC)OCC` was 2.7 mM (≈ 600 µg/mL).

The molecule `O=C(O)c1ccc([N+](=O)[O-])c2cccnc12` gave a solubility of 0.683 mM (≈ 149 µg/mL). On the same count and under the same terms, next, `CC(C)[C@H](NCCC#N)C(=O)O`: 75.2 mM (≈ 12800 µg/mL).

As for `O=C1CC=CS1`, the solubility was 599 mM (≈ 60000 µg/mL). On the same count and under the same terms, the value for `CCCCS(=O)(=O)C(S(=O)(=O)CCCC)S(=O)(=O)CCCC` was 1.06 mM (≈ 400 µg/mL).

The same series, now with this note: 26 °C.
For the molecule `CC(C=NO)=NO`, the solubility stood at 451 mM (≈ 46000 µg/mL).

Still in this series, the particulars now being: 27 °C.
On to `c1ccc2c(c1)-c1cccc3cc4c(ccc5ccccc54)c-2c13`, for which the solubility was 3.31e-06 mM (≈ 0.001 µg/mL).

The series is the same for the next values; noted with them: 30 °C.
With `CN(C)C(=O)c1cccc(C(=O)N(C)C)c1`, the solubility came to 3070 mM (≈ 676000 µg/mL). Same read-out and setting: next, `CCCOC(=O)c1ccc(O)c(I)c1`: 0.206 mM (≈ 63 µg/mL); `O=C(O)Cc1c[nH]c(=O)[nH]c1=O`: 23.5 mM (≈ 4000 µg/mL).
